According to publication PMC12673918, “Design, Synthesis, and Selective Antiproliferative Activity of Indolizine Derivatives as Microtubule Destabilizers” (Archiv Der Pharmazie, 2025):

Assays:
Assay type in all cases: cell-based
BT‐20 (breast carcinoma) = test: Resazurin cell viability assay, BT‐20; conditions: 50 µM, 72 h, mean ± SD, n = 3; for inhibition at 50 µM: Homo sapiens, BT-20, read-out: % Cellular growth inhibition (at 50 µM) BT‐20
Description: (§1) The tongue squamous cell carcinoma cell line CAL‐27 (ATCC CRL‐2095), breast carcinoma BT‐20 (ATCC HTB‐19), gastric carcinoma HGC‐27 (BCRJ Code 0310), and normal oral fibroblast OHMF (culture of fibroblasts derived from human oral healthy mucosa, approved by the Research Ethics Committee of the University of São Paulo, Campus of Ribeirão Preto, Brazil (with protocol number 049) were cultured in DMEM medium (DMEM, Sigma‐Aldrich, St. Louis, MO, USA) supplemented with 10% fetal bovine serum and a solution of penicillin (100 U/mL) and streptomycin (100 μg/mL). The cultures were maintained in a humidified incubator with 5% CO₂ at 37°C.
(§2) Cell viability was analyzed using the resazurin assay. For this, cells were seeded in 96‐well plates (1 × 10^3 cells per well) and incubated at 37°C with 5% CO₂ overnight for cell adhesion. Subsequently, the cells were treated with different compounds (0–50 µM) for 72 h. After treatment, the medium was replaced with phenol‐free DMEM medium (Sigma‐Aldrich) containing resazurin at a concentration of 44 µM (Sigma‐Aldrich). After incubation for 4 h at 37°C, fluorescence detection was performed (excitation 530/25 nm, emission 590/35 nm) using a microplate fluorimeter (Synergy 2, Biotek). Initial cell growth inhibition assays were performed in triplicate or quadruplicate, while IC50 determinations were conducted in triplicate. Data were plotted, and IC₅₀ values were determined by nonlinear regression using GraphPad Prism software 9.0.
(§3) ^a Cell viability was assessed using the resazurin assay after 72 hours of compound treatment. Fluorescence was measured to estimate % of cellular growth inhibition at 50 µM values, based on triplicate experiments.
(§4) ^b IC50 values were determined using the same resazurin-based assay, with fluorescence measurements performed after 72 hours of treatment. These experiments were carried out in triplicate.

[1] = system: CAL‐27, BT‐20 and HGC‐27 cancer cell lines; test: Resazurin antiproliferative screening, cancer cell line panel; conditions: 50 μM, 70% inhibition threshold
Description: as §1, §2

CAL‐27 (oral carcinoma) = test: Resazurin cell viability assay, CAL‐27; conditions: 50 µM, 72 h, mean ± SD, n = 3; for inhibition at 50 µM: Homo sapiens, CAL-27, read-out: % Cellular growth inhibition (at 50 µM) CAL‐27
Description: as §1, §2, §3, §4

[2] = system: HGC‐27 (gastric carcinoma); test: Resazurin cell viability assay, HGC‐27; conditions: 50 µM, 72 h, mean ± SD, n = 3; for inhibition at 50 µM: Homo sapiens, HGC-27, read-out: % Cellular growth inhibition (at 50 µM) HGC‐27
Description: as §1, §2, §3, §4

human P2X4 receptor = target: T1, human P2X4 receptor (Homo sapiens, UniProt Q99571); test: Ca2+‐flux assay for the hP2X4 receptor; conditions: for inhibition at 10 µM: read-out: % Inhibition of P2X4R at 10 µM compounds’ concentration
T1 construct: expressed in transfected cells; host or cells: human 1321N1 astrocytoma cells
T1 sequence (Q99571 1-388): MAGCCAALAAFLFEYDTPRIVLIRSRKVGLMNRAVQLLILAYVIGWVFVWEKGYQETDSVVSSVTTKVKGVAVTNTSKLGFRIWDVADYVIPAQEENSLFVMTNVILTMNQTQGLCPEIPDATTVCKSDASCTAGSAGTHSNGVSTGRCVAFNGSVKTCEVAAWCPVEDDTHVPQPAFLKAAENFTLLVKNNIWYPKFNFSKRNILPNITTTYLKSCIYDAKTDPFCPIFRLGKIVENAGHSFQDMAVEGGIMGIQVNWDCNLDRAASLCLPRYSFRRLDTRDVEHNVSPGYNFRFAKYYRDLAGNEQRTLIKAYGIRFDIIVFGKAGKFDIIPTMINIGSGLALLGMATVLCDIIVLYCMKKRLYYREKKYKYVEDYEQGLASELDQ
Description: Human 1321N1 astrocytoma cells stably expressing the human P2X4 receptor (generated in‐house) were cultured in Dulbecco's Modified Eagle Medium supplemented with 9% (v/v) FCS, 1% (v/v) Penicillin/Streptomycin (10000 I.U./mL, 10 mg/mL in 0.9% NaCl) and puromycin (1 µg/mL) as a selection antibiotic at 37°C and 5% CO2. Cells were subcultured in cell culture 75 cm^2 flasks and split every 2–4 days (1:5; 1:6) once confluent.
1321N1 cells stably expressing human P2X4 receptor were seeded into black‐walled 96‐well plates (Thermo Fisher Scientific) at 2.5 × 10^4 cells/well and incubated at 37°C for 24–48 h. All test compounds were diluted in assay buffer solution (SBS: 135 mM NaCl; 5 mM KCl; 1 mM MgCl2.6 H2O; 1.8 mM CaCl2; 5.6 mM D‐Glucose; 10 mM HEPES, 0.1% (m/v) BSA, 0.05% (m/v) gelatine, 2.3 mM probenecid). The culture medium was removed, and 100 µL of 4 μM fluorescent Ca^2+ indicator Calbryte520AM in SBS was added and incubated at 37°C for 1 h. The dye solution was then removed, 100 µL of SBS solution and 50 µL of antagonist dilutions (10^–5–10^–9 M) in SBS were added, and the cells were incubated at room temperature for an extra 30 min. Finally, 50 µL of ATP (at a concentration of the previously determined EC50‐ value) was added by using FlexStation 3 Multi‐Mode Microplate Reader (Molecular Devices, San Jose, CA, USA, Software SoftMax7 Pro). The changes in intracellular Ca^2+ ion concentrations were monitored over 200 s (20 s baseline) by measuring the fluorescence signal at λ ex = 494 nm and λ em = 516 nm ([…] cut‐off). The concentration‐dependent decrease in Ca^2+‐flux, expressed as RFU, was plotted against the concentrations of the compounds.

human P2X7 receptor = target: T2, human P2X7 receptor (Homo sapiens, UniProt Q99572); test: YO‐PRO‐1 dye uptake assay for the P2X7 receptor; conditions: for inhibition at 10 µM: P2X7, read-out: % Inhibition of P2X7R at 10 µM compounds’ concentration
T2 construct: host or cells: HEK-293
T2 sequence (Q99572 1-595): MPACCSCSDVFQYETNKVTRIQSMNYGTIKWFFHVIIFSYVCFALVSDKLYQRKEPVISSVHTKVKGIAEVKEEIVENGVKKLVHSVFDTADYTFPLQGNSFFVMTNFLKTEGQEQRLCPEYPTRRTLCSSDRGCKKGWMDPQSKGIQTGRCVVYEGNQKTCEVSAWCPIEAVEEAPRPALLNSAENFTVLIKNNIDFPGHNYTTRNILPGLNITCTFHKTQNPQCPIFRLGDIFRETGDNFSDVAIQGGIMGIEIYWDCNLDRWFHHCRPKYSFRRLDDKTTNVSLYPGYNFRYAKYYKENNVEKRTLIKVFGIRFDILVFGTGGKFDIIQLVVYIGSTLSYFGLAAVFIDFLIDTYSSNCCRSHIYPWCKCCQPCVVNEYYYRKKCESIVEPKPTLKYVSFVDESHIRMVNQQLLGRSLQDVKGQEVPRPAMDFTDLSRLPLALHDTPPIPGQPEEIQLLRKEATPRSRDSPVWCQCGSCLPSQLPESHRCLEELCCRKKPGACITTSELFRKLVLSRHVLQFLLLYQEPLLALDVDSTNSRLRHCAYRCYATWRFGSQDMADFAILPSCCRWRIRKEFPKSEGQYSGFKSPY
Description: HEK‐293 cell lines stably expressing human P2X7 receptor (hP2X7R‐HEK‐293, B'SYS GmbH, Witterswil, Switzerland) were maintained in a 50/50 mix of Dulbecco's Modified Eagle Medium and F12 medium (DMEM/F12) supplemented with 9% (v/v) FCS, 1% (v/v) Penicillin/Streptomycin (10000 I.U./mL, 10 mg/mL in 0.9% NaCl) and G418 (100 µg/mL) at 37°C and 5% CO2. Cells were subcultured in cell culture 75 cm^2 flasks and split every 2‐4 days (1:3; 1:6; 1:10) once confluent.
HEK‐293 cell lines stably expressing human P2X7 receptor were seeded into black‐walled Nunc 96‐well optical bottom plates (Thermo Fisher Scientific) at 2.0–4.0 × 10^4 cells/well and incubated at 37°C for 24–48 h. After removing the culture medium, cells were washed with 100 µL wash buffer (280 mM Sucrose; 5.6 mM KCl; 0.5 mM CaCl2; 10 mM D‐Glucose; 10 mM HEPES; 5 mM N‐Methyl‐D‐glucamine (pH 7.4)). Then, 50 µL assay buffer (280 mM Sucrose; 6.4 mM KCl, 10 mM D‐Glucose; 10 mM HEPES; 5.0 mM N‐Methyl‐D‐glucamine (pH 7.4)) and 50 µL of antagonist dilutions (10^–5–10^–9 M) in assay buffer were added, and the cells were incubated at 37°C for 30 min. […] Finally, the uptake of YO‐PRO‐1 dye was recorded in a 9‐point‐well scan by following the fluorescence change using a FlexStation 3 Multi‐Mode Microplate Reader (Molecular Devices, San Jose, CA, USA, Software SoftMax7 Pro, endpoint protocol, well scan with reading pattern “fill scan”, λ ex = 485 nm, λ em = 535 nm). To determine the concentration‐dependent uptake inhibition by antagonists, the YO‐PRO‐1 uptake, expressed as RFU, was plotted against the concentrations of the compounds.

% Inhibition of P2X4R at 10 µM compounds’ concentration (human P2X4 receptor; 10 μM) [%]	% Inhibition of P2X7R at 10 µM compounds’ concentration (human P2X7 receptor; 10 μM) [%]	inhibition at 10 µM (human P2X4 receptor) [%]	inhibition at 10 µM (human P2X7 receptor) [%]	SMILES	% Cellular growth inhibition (at 50 µM) BT‐20 (BT‐20 (breast carcinoma)) [%]	level of inhibition in the 50 µM screening [1] [%]	% Cellular growth inhibition (at 50 µM) CAL‐27 (CAL‐27 (oral carcinoma)) [%]	% Cellular growth inhibition (at 50 µM) HGC‐27 [2] [%]	inhibition at 50 µM (BT‐20 (breast carcinoma)) [%]	inhibition at 50 µM (CAL‐27 (oral carcinoma)) [%]	inhibition at 50 µM [2] [%]
2	-10	–	–	CCOC(=O)c1cn2cc(OC)ccc2c1C(=O)c1cc(OC)c(OC)c(OC)c1 [Compound 8d, Ethyl [6‐methoxy‐1‐(3,4,5‐trimethoxybenzoyl)indolizine]‐2‐carboxylate]	55 ± 4.7	≤ 70	66 ± 0.8	44 ± 1.9	–	–	–
–	–	9	7	O=C(c1ccc(Cl)c(Cl)c1)c1ccn2ccccc12 [Compound 6e, (3,4‐dichlorophenyl)(indolizin‐1‐yl)methanone]	–	–	–	–	40 ± 0.4	42 ± 0.8	41 ± 1
–	–	-2	-9	COc1ccc2c(C(=O)c3ccc(C)cc3)ccn2c1 [Compound 7c, (6‐methoxyindolizin‐1‐yl)(p‐tolyl)methanone]	–	–	–	–	15 ± 0.5	20 ± 0.7	13 ± 0.7
–	–	3	-8	Cc1ccc(C(=O)c2ccn3ccccc23)cc1 [Compound 6c, (Indolizin‐1‐yl)(p‐tolyl)methanone]	–	–	–	–	28 ± 1.3	22 ± 2.6	20 ± 0.6
–	–	4	5	COc1ccc2c(C(=O)c3cc(OC)c(OC)c(OC)c3)c(-c3ccccc3)cn2c1 [Compound 8f, (6‐methoxy‐2‐phenylindolizin‐1‐yl)(3,4,5‐trimethoxyphenyl)methanone]	–	–	–	–	55 ± 1.8	69 ± 0.4	49 ± 4
–	–	0	5	COc1ccc(C(=O)c2ccn3ccccc23)cc1 [Compound 6d, (Indolizin‐1‐yl)(4‐methoxyphenyl)methanone]	–	–	–	–	28 ± 0.5	18 ± 0.6	24 ± 1.1
–	–	-3	10	O=C(c1ccc(Cl)cc1)c1ccn2ccccc12 [Compound 6b, (4‐chlorophenyl)(indolizin‐1‐yl)methanone]	–	–	–	–	32 ± 0.8	25 ± 0.4	26 ± 1

SMILES	% Inhibition of P2X4R at 10 µM compounds’ concentration (human P2X4 receptor; 10 μM) [%]	% Inhibition of P2X7R at 10 µM compounds’ concentration (human P2X7 receptor; 10 μM) [%]	inhibition at 10 µM (human P2X4 receptor) [%]	inhibition at 10 µM (human P2X7 receptor) [%]	% Cellular growth inhibition (at 50 µM) BT‐20 (BT‐20 (breast carcinoma)) [%]	level of inhibition in the 50 µM screening [1] [%]	% Cellular growth inhibition (at 50 µM) CAL‐27 (CAL‐27 (oral carcinoma)) [%]	% Cellular growth inhibition (at 50 µM) HGC‐27 [2] [%]	inhibition at 50 µM (BT‐20 (breast carcinoma)) [%]	inhibition at 50 µM (CAL‐27 (oral carcinoma)) [%]	inhibition at 50 µM [2] [%]
COc1ccc2c(C(=O)c3cc(OC)c(OC)c(OC)c3)c(-c3ccccn3)cn2c1 [Compound 8g, [6‐methoxy‐2‐(pyridin‐2‐yl)indolizin‐1‐yl](3,4,5‐trimethoxyphenyl)methanone]	–	–	-8	1	–	–	–	–	54 ± 2.8	68 ± 1	44 ± 0.4
CCOc1cn2cc(OC)ccc2c1C(=O)c1cc(OC)c(OC)c(OC)c1 [Compound 8c, (2‐ethoxy‐6‐methoxyindolizin‐1‐yl)(3,4,5‐trimethoxyphenyl)methanone]	–	–	10	3	–	–	–	–	55 ± 4.7	56 ± 4.6	43 ± 3.5
